The structures appear in SMILES notation.

For this test, the target named is human LPAR1 (Homo sapiens, UniProt Q92633). The test can be described thus: LPAR1 intracellular calcium mobilization assay (antagonist mode).
human LPAR1, sequence (Q92633 whole entry): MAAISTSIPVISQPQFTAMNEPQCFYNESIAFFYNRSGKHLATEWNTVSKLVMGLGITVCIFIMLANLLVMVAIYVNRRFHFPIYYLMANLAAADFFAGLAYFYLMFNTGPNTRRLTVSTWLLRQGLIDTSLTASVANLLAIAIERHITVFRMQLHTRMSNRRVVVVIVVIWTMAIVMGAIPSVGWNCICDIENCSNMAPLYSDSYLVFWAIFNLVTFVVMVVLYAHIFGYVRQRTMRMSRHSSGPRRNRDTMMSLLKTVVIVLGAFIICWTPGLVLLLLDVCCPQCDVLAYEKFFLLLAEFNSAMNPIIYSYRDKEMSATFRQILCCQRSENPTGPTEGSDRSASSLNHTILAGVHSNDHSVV

Method: In vitro LPAR1 activity was measured in an intracellular calcium mobilization assay.
Prior to testing cell media were aspirated from the cells and replaced with 20 μL Calcium Dye Loading Buffer (DiscoverX Calcium NoWash^PLUS Assay Kit cat #90-0091) and 2.5 mM Probenecid (Sigma Aldrich cat #P8761, prepared fresh) in HBSS/20 mM Hepes for 60 min at 37° C.
For agonist dose curves, cells were removed from the incubator after dye loading and 10 μL HBSS/20 mM Hepes including 3× vehicle was added. Cells were incubated for 30 min at room temperature in the dark to equilibrate plate temperatures. An intermediate LPA dilution series was prepared in assay buffer to generate 4× stock. Calcium mobilization was monitored on a FLIPR Tetra (MDS, San Jose, Calif.) for 2 min and 10 μL 4×LPA in HBSS/20 mM Hepes was added to the cells 5 s into the assay.
An intermediate antagonist dilution series was prepared as 3× samples in assay buffer. After dye loading, cells were removed from the incubator and 10 μL 3× antagonist was added. Cells were incubated for 30 min at room temperature in the dark to equilibrate plate temperatures. The final vehicle (DMSO) concentration was 1%. Compound antagonist activities was measured on a FLIPR Tetra. Calcium mobilization was monitored for 2 min and 10 μL EC80 agonist in HBSS/20 mM Hepes was added to the cells 5 s into the assay. Compound activity was analyzed using CBIS data analysis suite (ChemInnovation Software, San Diego, Calif.).

`CCCC[C@@H](C)OC(=O)Nc1c(-c2ccc(NS(C)(=O)=O)c(C)n2)nnn1C` [Compound 28, (R)-hexan-2-yl (1-methyl-4-(6-methyl-5-(methylsulfonamido)pyridin-2-yl)-1H-1,2,3-triazol-5-yl)carbamate]: the EC50 worked out at 171 nM. The result for `Cc1nc(-c2nnn(C)c2NC(=O)O[C@H](CF)c2cccc(F)c2)ccc1NS(C)(=O)=O` [Compound 43, (S)-2-fluoro-1-(3-fluorophenyl)ethyl (1-methyl-4-(6-methyl-5-(methylsulfonamido)pyridin-2-yl)-1H-1,2,3-triazol-5-yl)carbamate] reads 18.4 nM. For the compound `Cc1nc(-c2nnn(C)c2NC(=O)OC(C)c2cncc(F)c2Cl)ccc1NS(C)(=O)=O` (stereo not shown) [Compound 78, 1-(4-chloro-5-fluoropyridin-3-yl)ethyl (1-methyl-4-(6-methyl-5-(methylsulfonamido)pyridin-2-yl)-1H-1,2,3-triazol-5-yl)carbamate], the EC50 stood at 378 nM.

In the case of `Cc1nc(-c2nnn(C)c2NC(=O)O[C@H](C)c2cc(Cl)cnc2Cl)ccc1NS(C)(=O)=O` [Compound 142, (R)-1-(2,5-dichloropyridin-3-yl)ethyl (1-methyl-4-(6-methyl-5-(methylsulfonamido)pyridin-2-yl)-1H-1,2,3-triazol-5-yl)carbamate], the EC50 worked out at 142 nM. The result for `Cn1nnc(-c2ccc(NS(C)(=O)=O)cn2)c1NC(=O)O[C@@H](c1ccccc1)C(F)F` [Compound 15, (S)-2,2-difluoro-1-phenylethyl (1-methyl-4-(5-(methylsulfonamido)pyridin-2-yl)-1H-1,2,3-triazol-5-yl)carbamate] reads 8.2 nM; that for `C[C@@H](OC(=O)Nc1c(-c2ccc(NS(=O)(=O)NC3CC3)cn2)nnn1C)c1cccnc1Cl` [Compound 159, (R)-1-(2-chloropyridin-3-yl)ethyl (4-(5-((N-cyclopropylsulfamoyl)amino)pyridin-2-yl)-1-methyl-1H-1,2,3-triazol-5-yl)carbamate], 240 nM; that for `Cc1nc(-c2nnn(CC#N)c2NC(=O)O[C@@H](c2ccccc2)C(F)F)ccc1NS(C)(=O)=O` [Compound 100, (S)-2,2-difluoro-1-phenylethyl(1-(cyanomethyl)-4-(6-methyl-5-(methylsulfonamido)pyridin-2-yl)-1H-1,2,3-triazol-5-yl)carbamate], 114 nM.

On to `Cc1nc(-c2nnn(C)c2NC(=O)OC(C)c2cccnc2F)ccc1NS(C)(=O)=O` (stereo not shown) [Compound 79, 1-(2-fluoropyridin-3-yl)ethyl (1-methyl-4-(6-methyl-5-(methylsulfonamido)pyridin-2-yl)-1H-1,2,3-triazol-5-yl)carbamate], for which the concentration for a half-maximal effect (EC50) is 589 nM. As to `C[C@@H](OC(=O)Nc1c(-c2cc(F)c(NS(C)(=O)=O)cn2)nnn1C)c1cccnc1Cl` [Compound 158, (R)-1-(2-chloropyridin-3-yl)ethyl (4-(4-fluoro-5-(methylsulfonamido)pyridin-2-yl)-1-methyl-1H-1,2,3-triazol-5-yl)carbamate], the EC50 was found to be 78.1 nM. For `C[C@@H](OC(=O)Nc1c(-c2ccc(NS(C)(=O)=O)c(C3CC3)n2)nnn1C)c1cccnc1Cl` [Compound 149, (R)-1-(2-chloropyridin-3-yl)ethyl (4-(6-cyclopropyl-5-(methylsulfonamido)pyridin-2-yl)-1-methyl-1H-1,2,3-triazol-5-yl)carbamate], the EC50 came to 304 nM.

As for `Cc1ncc(S(=O)(=O)Nc2ccc(-c3nnn(C)c3NC(=O)O[C@H](C)c3cccc(F)c3)nc2C)s1` [Compound 107, (R)-1-(3-fluoro-phenyl)ethyl (1-methyl-4-(6-methyl-5-((2-methylthiazole)-5-sulfonamido)pyridin-2-yl)-1H-1,2,3-triazol-5-yl)carbamate], the EC50 was found to be 1120 nM. Regarding `C[C@@H](OC(=O)Nc1c(-c2ccc(NS(C)(=O)=O)cn2)nnn1C)c1cc(Cl)sc1Cl` [Compound 110, (R)-1-(2,5-dichlorothiophen-3-yl)ethyl (1-methyl-4-(5-(methylsulfonamido)pyridin-2-yl)-1H-1,2,3-triazol-5-yl)carbamate], the EC50 came to 12.3 nM. Turning to `Cc1nc(-c2nnn(C)c2NC(=O)O[C@H](CCl)c2ccccc2)ccc1NS(C)(=O)=O` [Compound 49, (S)-2-chloro-1-phenylethyl (1-methyl-4-(6-methyl-5-(methylsulfonamido)pyridin-2-yl)-1H-1,2,3-triazol-5-yl)carbamate], the EC50 was determined as 203 nM. For `Cc1nc(-c2nnn(C)c2NC(=O)O[C@H](C)c2cc(F)cnc2C#N)ccc1NS(C)(=O)=O` [Compound 152, 1-(2-cyano-5-fluoropyridin-3-yl)ethyl (1-methyl-4-(6-methyl-5-(methylsulfonamido)pyridin-2-yl)-1H-1,2,3-triazol-5-yl)carbamate], the concentration giving a half-maximal response (EC50) stood at 1300 nM. In the case of `Cc1nc(-c2nnn(C)c2NC(=O)O[C@H](C)c2ccnn2C)ccc1NS(C)(=O)=O` [Compound 135, (R)-1-(1-methyl-1H-pyrazol-5-yl)ethyl (1-methyl-4-(6-methyl-5-(methylsulfonamido)pyridin-2-yl)-1H-1,2,3-triazol-5-yl)carbamate], the EC50 amounted to 2980 nM.

In the case of `COc1nc(-c2nnn(C)c2NC(=O)O[C@H](C)c2ccccc2Cl)ccc1NS(C)(=O)=O` [Compound 4, (R)-1-(2-chlorophenyl)ethyl (4-(6-methoxy-5-(methylsulfonamido)pyridin-2-yl)-1-methyl-1H-1,2,3-triazol-5-yl)carbamate], the EC50 is 61.7 nM. On to `Cc1nc(-c2nnn(C)c2NC(=O)O[C@H](C)c2cc(F)ccc2F)ccc1NS(C)(=O)=O` [Compound 63, (R)-1-(2,5-difluorophenyl)ethyl (1-methyl-4-(6-methyl-5-(methylsulfonamido)pyridin-2-yl)-1H-1,2,3-triazol-5-yl)carbamate], for which the 50% effective concentration (EC50) turned out to be 23.4 nM. On to `Cc1nc(-c2nnn(C)c2NC(=O)N[C@@H](c2ccccc2)C(F)F)ccc1NS(C)(=O)=O` [Compound 65, (S)-N-(6-(5-(3-(2,2-difluoro-1-phenylethyl)ureido)-1-methyl-1H-1,2,3-triazol-4-yl)-2-methylpyridin-3-yl)methanesulfonamide], for which the EC50 was determined as 1020 nM.

Turning to `Cc1nc(-c2nnn(C)c2NC(=O)O[C@H](C)c2cc(F)c(F)cc2F)ccc1NS(C)(=O)=O` [Compound 90, (R)-1-(2,4,5-trifluorophenyl)ethyl(1-methyl-4-(6-methyl-5-(methylsulfonamido)pyridin-2-yl)-1H-1,2,3-triazol-5-yl)carbamate], the EC50 worked out at 282 nM.

Take `Cc1nc(-c2nnn(C)c2NC(=O)O[C@H](CC#N)c2ccccc2)ccc1NS(C)(=O)=O` [Compound 50, (R)-2-cyano-1-phenylethyl (1-methyl-4-(6-methyl-5-(methylsulfonamido)pyridin-2-yl)-1H-1,2,3-triazol-5-yl)carbamate]: the EC50 worked out at 730 nM. For the compound `Cc1nc(-c2nnn(C)c2NC(=O)OC(C)c2cccnc2C(F)(F)F)ccc1NS(C)(=O)=O` (stereo not shown) [Compound 85, 1-(2-(trifluoromethyl)pyridin-3-yl)ethyl (1-methyl-4-(6-methyl-5-(methylsulfonamido)pyridin-2-yl)-1H-1,2,3-triazol-5-yl)carbamate], the EC50 came to 2470 nM. Regarding `C[C@@H](OC(=O)Nc1c(-c2ccc(NS(C)(=O)=O)cn2)nnn1C)c1csnc1Cl` [Compound 119, (R)-1-(3-chloroisothiazol-4-yl)ethyl (1-methyl-4-(5-(methylsulfonamido)pyridin-2-yl)-1H-1,2,3-triazol-5-yl)carbamate], the EC50 came out at 50.2 nM.

Values taken from patent US11548871B2, “Triazole carbamate pyridyl sulfonamides as LPA receptor antagonists and uses thereof” (Gilead Sciences, Inc., priority 2019, dated 2023).
